In experiment [1] the target is T1, Interstitial collagenase (Homo sapiens, UniProt P03956).
T1 sequence (P03956 whole entry): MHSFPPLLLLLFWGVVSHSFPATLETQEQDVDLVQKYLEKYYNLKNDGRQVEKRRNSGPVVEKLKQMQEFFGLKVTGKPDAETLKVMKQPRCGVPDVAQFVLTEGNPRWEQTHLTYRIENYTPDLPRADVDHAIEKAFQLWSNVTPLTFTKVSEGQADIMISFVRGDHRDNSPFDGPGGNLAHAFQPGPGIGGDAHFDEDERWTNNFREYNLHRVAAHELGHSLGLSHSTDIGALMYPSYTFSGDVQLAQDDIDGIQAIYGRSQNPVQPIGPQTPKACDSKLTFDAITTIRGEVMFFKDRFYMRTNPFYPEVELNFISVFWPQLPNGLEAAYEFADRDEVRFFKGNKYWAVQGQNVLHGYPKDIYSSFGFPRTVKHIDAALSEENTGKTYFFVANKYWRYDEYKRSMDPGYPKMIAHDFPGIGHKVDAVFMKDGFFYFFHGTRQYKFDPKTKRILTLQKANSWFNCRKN
As to the kind of experiment: Inhibition of MMP-1 (human fibroblast collagenase).

The target in experiment [2] is Matrix metalloproteinase-9 (Homo sapiens, UniProt P14780). As to the kind of experiment: Inhibition of MMP-9 (matrix metalloprotease-9, gelatinase B).
Chain of Matrix metalloproteinase-9 (P14780 whole entry): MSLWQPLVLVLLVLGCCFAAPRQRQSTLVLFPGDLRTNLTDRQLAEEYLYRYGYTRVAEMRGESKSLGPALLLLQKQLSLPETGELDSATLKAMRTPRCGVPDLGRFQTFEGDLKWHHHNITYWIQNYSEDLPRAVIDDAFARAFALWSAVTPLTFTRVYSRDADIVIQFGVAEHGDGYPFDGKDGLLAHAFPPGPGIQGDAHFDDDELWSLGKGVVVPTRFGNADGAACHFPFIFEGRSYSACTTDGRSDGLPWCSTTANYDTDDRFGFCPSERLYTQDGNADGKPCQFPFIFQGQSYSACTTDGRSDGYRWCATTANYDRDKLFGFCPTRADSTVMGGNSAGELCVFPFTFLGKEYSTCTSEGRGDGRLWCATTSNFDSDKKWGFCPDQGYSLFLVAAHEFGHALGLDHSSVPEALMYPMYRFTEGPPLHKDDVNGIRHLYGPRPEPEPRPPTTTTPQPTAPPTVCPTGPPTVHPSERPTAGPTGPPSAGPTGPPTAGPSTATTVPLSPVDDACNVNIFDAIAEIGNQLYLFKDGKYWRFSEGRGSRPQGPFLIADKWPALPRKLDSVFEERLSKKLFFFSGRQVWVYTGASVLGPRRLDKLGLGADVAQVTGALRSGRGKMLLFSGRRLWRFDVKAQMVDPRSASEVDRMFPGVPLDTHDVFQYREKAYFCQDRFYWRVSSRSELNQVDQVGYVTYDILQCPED
Experiment [3] deals with Stromelysin-1 (Homo sapiens, UniProt P08254). As to the kind of experiment: Inhibition of MMP-3 (human fibroblast stromelysin).
Chain of Stromelysin-1 (P08254 whole entry): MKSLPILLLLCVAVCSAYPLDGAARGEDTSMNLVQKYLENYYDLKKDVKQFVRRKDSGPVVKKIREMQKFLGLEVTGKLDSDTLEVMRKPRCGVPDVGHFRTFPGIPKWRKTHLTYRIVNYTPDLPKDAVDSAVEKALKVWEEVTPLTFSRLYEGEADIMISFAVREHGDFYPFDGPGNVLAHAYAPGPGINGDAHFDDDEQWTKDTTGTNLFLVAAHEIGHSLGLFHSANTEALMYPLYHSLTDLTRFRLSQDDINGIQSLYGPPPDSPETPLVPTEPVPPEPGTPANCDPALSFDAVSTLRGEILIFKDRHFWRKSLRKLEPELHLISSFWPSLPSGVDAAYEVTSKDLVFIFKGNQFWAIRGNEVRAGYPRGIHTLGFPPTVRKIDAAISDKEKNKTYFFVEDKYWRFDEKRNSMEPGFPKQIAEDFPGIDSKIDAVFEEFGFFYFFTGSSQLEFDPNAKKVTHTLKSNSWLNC
The species entered for experiment [4] is Homo sapiens. The experiment can be described thus: Compound was tested for its ability to suppress the release of TNF-alpha (TNF-WBA) in human whole blood after stimulation with LPS. The format is functional, organism-based.

On to `CNC(=O)[C@@H]1CCCCN(C(=O)OC(C)(C)C)CCC[C@H](C(=O)NO)[C@@H](CC(C)C)C(=O)N1`, for which the Ki – broadly, a dissociation constant, usually derived from enzyme kinetics or from competition with a known ligand – was less than 1 nM in experiment [1], less than 1 nM in experiment [2] and 3 nM in experiment [3]. Further, in experiment [4], the IC50 (as a rule, the concentration needed to halve the response being measured) is 1400 nM.

For `CNC(=O)[C@@H]1CCCCN(S(=O)(=O)c2ccc(N)cc2)CCC[C@H](C(=O)NO)[C@@H](CC(C)C)C(=O)N1`, the Ki was less than 1 nM in experiment [1], 1.6 nM in experiment [2] and 99 nM in experiment [3]. The compound further had an IC50 in experiment [4] of 950 nM.

On to `CNC(=O)[C@@H]1CCCCN(S(=O)(=O)c2ccccc2)CCC[C@H](C(=O)NO)[C@@H](CC(C)C)C(=O)N1`, for which the inhibitory constant (Ki) was less than 1 nM in experiment [1], less than 1 nM in experiment [2] and 3.4 nM in experiment [3]. Further, in experiment [4], the concentration for half-maximal inhibition (IC50) is 1300 nM.

For the compound `CNC(=O)[C@@H]1CCCCN(S(=O)(=O)c2c(C)cc(C)cc2C)CCC[C@H](C(=O)NO)[C@@H](CC(C)C)C(=O)N1`, the Ki in experiment [1] is 2.3 nM; in experiment [2] it was less than 1 nM; in experiment [3], 15 nM. Also, half-maximal inhibition in experiment [4] (IC50) was put at 1600 nM.

As to `CNC(=O)[C@@H]1CCCCN(S(=O)(=O)c2cn(C)cn2)CCC[C@H](C(=O)NO)[C@@H](CC(C)C)C(=O)N1`, the Ki is less than 1 nM in experiment [1], 2.7 nM in experiment [2] and 12 nM in experiment [3]. This compound gave an IC50 in experiment [4] of 1400 nM.

As to `CNC(=O)[C@@H]1CCCCN(S(=O)(=O)C(F)(F)F)CCC[C@H](C(=O)NO)[C@@H](CC(C)C)C(=O)N1`, the Ki in experiment [1] is 4 nM; in experiment [2] it was less than 1 nM; in experiment [3], 118 nM. The compound also registered a 50% inhibitory concentration (IC50) in experiment [4] of 1300 nM.

For the compound `CNC(=O)[C@@H]1CCCCNCCC[C@H](C(=O)NO)[C@@H](CC(C)C)C(=O)N1`, the inhibitory constant (Ki) is less than 1 nM in experiment [1] and 12.8 nM in experiment [2]. For the same compound, 2700 nM corresponded to half-maximal inhibition in experiment [4] (IC50).

These data come from ChEMBL document CHEMBL1132042, “Macrocyclic hydroxamate inhibitors of matrix metalloproteinases and TNF-alpha production” (Bioorg Med Chem Lett, 1999).
